# Measured values as given in patent US20170129932A1, “METHOD FOR PREPARING RECOMBINANT GLYCOPROTEIN HAVING HIGH SIALIC ACID CONTENT, THROUGH GLYCOSPHINGOLIPID SYNTHESIS CYCLE CONTROL” (KOREA ADVANCED INSTITUTE OF SCIENCE AND TECHNOLOGY, priority 2014, published 2017).
# Experiments:
# [1] = tested on: EC2-1H9 cell line; assay: Glycosphingolipid (GSL) extraction and TLC in EC2-1H9 cells; assay type: cell-based, Chinese hamster; settings: 1 μM EtDO-P4, 48 hours, FIG. 1A
# Method: Glycosphingolipid (GSL) was sonicated for 30 minutes, followed by extraction using chloroform/methanol (C/M; 2:1, v/v) and isopropanol/hexane/water (IPA/H/W; 55:25:20 v/v/v). The GSL extract was dissolved in 0.1 M NaOH/MeOH, followed by culture for 2 hours at 40 °C. The extract was neutralized with 1 N HCl, to which hexane was added. The mixture stood for 5 minutes. The lower layer was evaporated in the N2 atmosphere, and the remaining part was dissolved in distilled water. The mixture was applied to […] (Varian, Palo Alto, Calif.). After washed with distilled water, total GSL was extracted with C/M, followed by evaporation. The residue dissolved in C/M was spotted on TLC plate (Silica Gel 60 F-254, Merck), followed by development in C/M/0.2% CaCl2 (55:40:10, v/v/v). The plate was then stained with 2% orcinol in 2 M H2SO4 by spraying.
# [2] = tested on: EC2-1H9 cell line; settings: WGA lectin blotting, EC2-1H9 cells, 1 μM EtDO-P4, FIGS. 1B and 1C
# Method: Particularly, in order to treat EtDO-P4, the cells (5×10^6) were cultured in 100-mm plates containing MEM-α supplemented with 10% dFBS for 24 hours. The cells were washed twice with serum-free MEM-α. Then, the cells were added with 1 μM EtDO-P4/MEM-α, followed by further culture for 48 hours.
structure (smiles),measurement,setting,value
"CCCCCCCCCCCCCCCC(=O)N[C@H](CN1CCCC1)[C@H](O)c1ccc2c(c1)OCCO2 [EtDO-P4, D-threo-1-(3′,4′-ethylenedioxy)-phenyl-2-palmitoylamino-3-pyrrolidino-1-propanol]","major GSLs, GM1, GM2, and GM3",[1],reduced completely
same,increase of sialic acid content of purified rhEpo,[2],up to 22%
